# Data: patent publication US7910568B2, “Derivatives of 4- or 5-aminosalicylic acid” (Antibe Therapeutics Inc., priority 2005, dated 2011)
# What was measured:
# [1] = system: leukocyte adherence to the vascular endothelium; assay: Aspirin-induced leukocyte adherence to the vascular endothelium, intravital microscopy of mesenteric venules; assay type: in vivo, rat
# Protocol: Leukocyte adherence was studied using intravital microscopy, as described in detail previously (Wallace et al., (1993) Am. J. Physiol. 265: 993-998, incorporated hereto by reference). Rats were anesthetized with pentobarbital sodium (60 mg/kg i.p.) and cautery incisions were made along the abdominal region. A tracheotomy was performed to facilitate breathing. The rats were placed in a supine position, and a segment of the mesentery was exteriorized through the abdominal incision. The mesentery was carefully placed over an optically clear viewing pedestal that allowed for trans-illumination of a 2-cm^2 segment of tissue. All exposed tissue was covered with saline-soaked gauze to minimize dehydration. The temperature of the pedestal was kept at 37° C. and the mesentery was superfused with warmed bicarbonate-buffered saline (pH 7.4). An intravital microscope (Nikon L25/0.35) and a ×10 eyepiece were used to observe the mesenteric microcirculation. Post-capillary venules with diameters ranging from 20 to 40 μm were selected for the study. A video camera mounted on the microscope (Panasonic™ digital 5000) projected the image onto a monitor, and the images were recorded for playback analysis using a videocassette recorder. Images of the mesenteric microcirculation were recorded 5 minutes prior to aspirin administration (baseline), at the time of aspirin administration (time 0-5) and every 15 minutes for 60 minutes. Leukocyte adherence was blindly quantified from videotaped images of the vessels made over 5-min periods as the number of leukocytes that remained stationary along the vessel wall for 30 s or more (expressed per 100 μm venule length). Groups of rats (at least 5 in each) were pretreated with Compound XXXV (130 mg/kg), Compound XXVII (100 mg/kg), mesalamine (50 mg/kg), or vehicle 60 min prior to aspirin (or vehicle) administration. These drugs were given intragastrically. In some experiments, rats were treated with glibenclamide (10 mg/kg i.p.) or vehicle 30 min prior to administration of these compounds.
# [2] = system: myeloperoxidase (MPO) activity; assay: TNBS-induced colitis in mice, colonic myeloperoxidase (MPO) activity as marker of granulocyte infiltration; assay type: in vivo; settings: Compound XXVII 100 mg/kg; FIG. 6
# Protocol: (§1) A standard experimental animal model of colitis induced by intracolonic administration of 2,4,6-trinitrobenzene sulfonic acid (TNBS) to mice is used in the following example. A detailed description of this model has been published (Santucci et al. (2003) Gastroenterology 124:1381-94) and is incorporated herein by reference. Briefly, 6-8 week old Balb/c mice were given TNBS intracolonically at a dose of 1.5 mg in 0.1 mL of 30% ethanol. The mice were randomized to the various treatment groups (n=6 per group). Beginning one hour later and continuing every 12 h for 5 days, the mice were treated orally with vehicle (1% carboxymethylcellulose (CMC)), 5-ASA (mesalamine) (25, 50 or 75 mg/kg) or with equimolar doses of 2-hydroxy-5-amino-benzoic acid 4-(thioxo-5H-[1,2]dithiol-3-yl)-phenyl ester hydrochloride (Compound XXXV) (130 mg/kg), or with […] (100 mg/kg), 50% (66 mg/kg) and 25% (33 mg/kg) of that dose. The mice were evaluated (blindly) on the final day of the study for the presence of diarrhea and fecal occult blood, and their body weights were measured. […] After sacrifice, a sample of the colon was excised for measurement of myeloperoxidase (MPO) activity, as a marker of granulocyte infiltration. All results were compared to those obtained with healthy mice as well.
# [3] = H2S generation in buffer, liver homogenate and liver homogenate with PAG, sulfide sensitive electrode; assay type: in vitro ADME, rat; settings: 1 mM compound, FIG. 21; for Effect of PAG (DL-propargylglycine) on H2S generation in liver homogenate: PAG 2 mM, inhibitor of cystathionine γ-lyase; for H2S release in buffer: potassium phosphate buffer pH 7.4, 37° C.
# [4] = system: visceral pain perception in response to colorectal distension; assay: Rat model of visceral pain perception, colorectal distension, abdominal withdrawal reflex score; assay type: in vivo; settings: for Pain perception score after glibenclamide pretreatment: glibenclamide 10 mg/kg i.p. 30 min before
# Protocol: A rat model of visceral pain perception, a pre-clinical model of irritable bowel syndrome, was used in the following example. Rats (male, Wistar, 200-250 g, obtained from Charles River, Monza, Italy), were housed in plastic cages and maintained under controlled conditions with 12-hours light/dark cycle with lights on at 7.00 AM. Tap water and standard laboratory chow were freely available. Before experiments, rats were individually trained by spending 2-3 hours per day in a plexiglass cage for 2-3 days. It allowed them to adjust to a movement-restriction environment. Food was withheld for 12 hours before colorectal distension (CRD) recording were performed. Experiments were performed in awake rats and were conducted in a blind manner in that the observer was not aware of the identity of drug administered to each animal.
# In the testing day, rats were sedated with ether inhalation and a 2 cm long latex balloon was inserted intrarectally 2 cm from the anal verge and fixed at the base of the tail. The balloon was connected via a double-barreled cannula to a pressure transducer to continuously monitoring the rectal pressure by a computer (PowerLab PC, A.D. Instruments, Milford, Mass., USA) and to a syringe for inflation/deflation of the balloon. The rats were then housed in a small cage (20×8×8 cm) on an elevated Plexiglas™ platform and allowed to wake up and adapt for 1 hour. After recovery from sedation, animals underwent the CRD procedure and behavioral responses were tested. The night before the experiments, the balloons were inflated and left overnight so the latex stretched and the balloons became compliant.
# CRD of 20 seconds, performed every 5 minutes, was applied in increment of 0.4 ml starting from 0.4 ml up to 1.6 ml water. To achieve an accurate measurement of the colonic parameters and perception, the distensions were repeated twice for each intensity and data for each animal were averaged for analysis. Each animal underwent a double set of CRD. Twenty minutes after the first sequence of CRD (0.4 mL-1.6 ml water), drugs were administered intraperitoneally (i.p.) and a second set of CRD was performed. Behavioral responses during the first and the second set of CRD were assessed and compared.
# Behavioral response to CRD was assessed by measuring the abdominal withdrawal reflex (AWR) using a semiquantitative score (1).
# The effects of mesalamine and Compound XXXV on colonic compliance and sensitivity were determined using a total of 8 fasting rats. To investigate whether the administration of mesalamine and Compound XXXV could revert pain induced by CRD, after the first sequence of CRD, […], after which a second set of CRD was repeated.
# All data are presented as the mean±SEM, with sample sizes of 4 rats/group; statistical comparison of paired data was performed by the Wilcoxon signed rank test. An associated probability (p value) of less that 5% was considered significant.
# TNBS-induced colitis = TNBS-induced colitis in mice, disease activity score; assay type: in vivo; settings: Compound XXVII 100 mg/kg vs mesalamine 50 mg/kg, 4-HTB 50 mg/kg and their mixture; FIG. 5
# Protocol: as §1
# thoracic aorta rings = assay: Vasorelaxant effect on phenylephrine-precontracted thoracic aorta rings; parameters: species or system CD-1 mice; settings: cumulative 10 nM-3 mM on PE (1 μM) precontracted rings with endothelium; FIG. 22
# Protocol: CD-1 mice were sacrificed and thoracic aorta was rapidly dissected and cleaned from fat and connective tissue. […] Changes in isometric tension were recorded with PowerLab™ data acquisition system (Ugo Basile, Italy). […] Rings were initially stretched until a resting tension of 1.5 g was reached and allowed to equilibrate for at least 40 minutes during which tension was adjusted, when necessary, to 1.5 g and bathing solution was periodically changed.
# Vehicle represents buffer but no compound. Curves to tested compounds were constructed in presence of endothelium.
# Data obtained are shown in FIG. 22 and are expressed as mean±SEM. The level of statistical significance was determined by 2-way analysis of variance (ANOVA) followed by Bonferroni's test for multiple comparison, using the GraphPad™ software.
# [5] = Viability of HT-29 human colon cancer cells, MTT assay; assay type: cell-based; settings: HT-29 colon cancer cells, 72 h exposure, HT-29, MTT, read-out: Cell viability rate as a percent of the vehicle (DMSO)-treated cells
# Protocol: HT-29 cells were grown in culture using standard methods. The cells were exposed to vehicle (DMSO), mesalamine or Compound XXXV. Concentrations ranging from 0.1 to 10 μM were tested, with each concentration tested in 6 wells. At the end of 72 h of exposure to the test drugs, cell viability was measured using the MTT [3-(4,5-dimethylthiaxol-2-yl)-2,5-diphenyltetrazolium bromide] assay (Carmichael et al. (1978) Cancer Res. 47, 936-942), incorporated herein by reference.
# [6] = after patients have taken the usual doses; Dig. Dis. Sci. 1989; 34: 573-578; cited from earlier work
# [7] = 0.8 mL colorectal distention, 100 mg/kg, FIG. 17
# [8] = equimolar doses: mesalamine 50 mg/kg, Compound XXXV 130 mg/kg, ADT-OH 80 mg/kg, Compound XXVII 100 mg/kg, 4-HTB 50 mg/kg, vs vehicle
compound,measurement,setting,value
"NC(=S)c1ccc(OC(=O)c2cc(N)ccc2O)cc1 [Compound XXVII, 5-Amino-2-hydroxy-benzoic acid 4-thiocarbamoyl-phenyl ester]","Aspirin-induced leukocyte adherence, final time period","[1]; minutes 60-65, XXXV 130 mg/kg, XXVII 100 mg/kg intragastric, FIG. 20",suppress aspirin-induced leukocyte adherence
same,"Aspirin-induced leukocyte adherence, final time period, after glibenclamide pretreatment","[1]; minutes 60-65, glibenclamide 10 mg/kg i.p., FIG. 20",reverse this inhibitor effect
same,MPO activity (granulocyte infiltration),[2],significantly reduced inflammation
same,Effect of PAG (DL-propargylglycine) on H2S generation in liver homogenate,[3],lack of effect
same,H2S release in buffer,[3],release H2S spontaneously (in buffer)
same,H2S release in liver homogenate compared with buffer,[3]; rat liver homogenate 10% (wt/vol),greater when in the presence of tissue
same,Pain perception score after glibenclamide pretreatment,[4]; [7],reversed by pretreatment with glibenclamide
same,Pain perception score,[4]; [7],significantly reduced the pain perception
same,Pain perception score,[4]; [8],significantly reduced pain perception
same,Disease Activity Index,TNBS-induced colitis,"almost three times as effective as either mesalamine alone, 4-HTB alone or a mixture of mesalamine and 4-HTB"
"NC(=S)c1ccc(O)cc1 [Compound 4-HTB, 4-hydroxythiobenzamide, reference compound]",H2S release in buffer,[3],did not release significant H2S
same,Pain perception score,[4]; [8],Only Compound XXXV and Compound XXVII significantly reduced pain perception
same,"Vasorelaxant effect (% relaxation), concentration dependent, compared to vehicle",thoracic aorta rings,significant vasorelaxant effects
"N[C@@H](CS)C(=O)O [L-cysteine, reference compound]",Effect of PAG (DL-propargylglycine) on H2S generation in liver homogenate,[3],markedly inhibited
same,H2S release in buffer,[3],did not release significant H2S
CC(=N)S [thioacetamide],"Vasorelaxant effect (% relaxation), concentration dependent, compared to vehicle",thoracic aorta rings,significant vasorelaxant effects
"Oc1ccc(-c2cc(=S)ss2)cc1 [ADT-OH, 5-p-hydroxyphenyl-1,2-dithione-3-thione, reference compound]",H2S release in buffer,[3],did not release significant H2S
same,Pain perception score,[4]; [8],Only Compound XXXV and Compound XXVII significantly reduced pain perception
"COc1ccc(Cl)cc1C(=O)NCCc1ccc(S(=O)(=O)NC(=O)NC2CCCCC2)cc1 [Glibenclamide, glibenclamide, reference compound]",Leukocyte adherence without aspirin,"[1]; glibenclamide alone, 10 mg/kg i.p.",did not affect leukocyte adherence
same,Aspirin-induced leukocyte adherence,"[1]; intragastric pretreatment 60 min prior to aspirin (XXXV 130 mg/kg, mesalamine 50 mg/kg), glibenclamide 10 mg/kg i.p., FIG. 19",did not affect the magnitude of aspirin-induced leukocyte adherence
"Nc1ccc(O)c(C(=O)O)c1 [Mesalamine, 5-aminosalicylic acid]",Aspirin-induced leukocyte adherence after glibenclamide pretreatment,"[1]; glibenclamide 10 mg/kg i.p. 30 min prior to the compound, FIG. 19",no effect
same,Pain perception score after glibenclamide pretreatment,[4]; [7],did not affect the pain perception
same,Pain perception score,[4]; [7],no significant effect
same,Pain perception score,[4]; [8],Only Compound XXXV and Compound XXVII significantly reduced pain perception
same,"viability at 72 h, 0.1 µM",[5]; 0.1 μM,104 ± 2.5%
same,"viability at 72 h, 1 µM",[5]; 1 μM,101 ± 3.5%
same,"viability at 72 h, 10 µM",[5]; 10 μM,91.1 ± 3.2%
same,Concentration in the colonic lumen,[6],up to 5 mM
